Test results reported in patent US6001801A, “Cyclic peptide analogs of somatostatin” (Biomeasure, Inc., priority 1998, dated 1999).
Bridge positions count the residues as written; N and C are the ends. Square brackets hold non-standard residues; d marks the D form. Peptide text beside a SMILES is read from it.

Target: T1, human SSTR-5 (Homo sapiens, UniProt P35346)
T1 construct: expressed in transfected cells; host or cells: CHO-K1
Assay: Human SSTR-5 binding assay ([125I-Tyr11]somatostatin-14 displacement, membranes of transfected CHO-K1 cells)
Details: ratio greater than one = more selective for SSTR-5 than for SSTR-2
Protocol: (2) Human SSTR-5 Binding Assay
CHO-K1 cells were transfected with the human SSTR-5 cDNA, described in Yamada, et al., Biochem Biophys. Res. Commun., 195-844 (1993) using standard techniques known in the molecular biological art. See, e.g., Patel, et al., Biochem. Biophys. Res. Comm. 198:605 (1994). Crude membranes were prepared by homogenization of the human SSTR-5 transfected CHO-K1 cells in 20 ml of ice-cold 50 mM Tris-HCl with a POLYTRON™ homogenizer (setting 6, 15 sec). Buffer was added to obtain a final volume of 40 ml, and the homogenate was centrifuged in a SORVAL™ SS-34 rotor at 39,000 g for 10 min at 0-4° C. The resulting supernatant was decanted and discarded. The pellet was rehomogenized in ice-cold buffer, diluted, and centrifuged as before. The final pellet was resuspended in the 10 mM Tris HCl and held on ice for the receptor binding assay.
The final assay volume was 0.3 ml. The incubations were terminated by rapid filtration through GF/C filters (pre-soaked in 0.3% polyethylenimine for 30 min) using a Brandel filtration manifold. Each tube and filter was then washed three times with 5 ml aliquots of ice-cold buffer.

T1 sequence (P35346 whole entry): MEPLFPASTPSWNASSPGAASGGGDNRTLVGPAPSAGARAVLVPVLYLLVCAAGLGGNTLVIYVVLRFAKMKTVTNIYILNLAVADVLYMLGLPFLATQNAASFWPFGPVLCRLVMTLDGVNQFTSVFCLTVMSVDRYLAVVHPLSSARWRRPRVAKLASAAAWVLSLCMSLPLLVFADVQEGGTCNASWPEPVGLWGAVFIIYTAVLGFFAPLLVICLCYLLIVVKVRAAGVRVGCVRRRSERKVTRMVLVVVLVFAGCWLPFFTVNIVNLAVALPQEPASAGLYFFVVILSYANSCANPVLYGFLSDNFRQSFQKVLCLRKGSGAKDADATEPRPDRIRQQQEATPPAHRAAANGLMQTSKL

NCCCC[C@@H]1NC(=O)[C@@H](Cc2c[nH]c3ccccc23)NC(=O)[C@H](Cc2c[nH]c3ccccc23)NC(=O)[C@H](Cc2ccccc2)NC(=O)[C@@H](N)CSSC[C@@H](C(N)=O)NC(=O)[C@H](Cc2ccccc2)NC(=O)[C@H](CO)NC1=O [Analog III, H2 -c[Cys-Phe-Trp-D-Trp-Lys-Ser-Phe-Cys] -NH2] (H-CFW[dW]KSFC-NH2; disulfide 1-8)
SSTR-2/SSTR-5 (ratio of the Ki's for human SSTR-2 and human SSTR-5): 12.1

C[C@@H](O)[C@@H]1NC(=O)[C@H](CCCCN)NC(=O)[C@@H](Cc2c[nH]c3ccccc23)NC(=O)[C@H](Cc2ccccc2)NC(=O)[C@H](Cc2ccccc2)NC(=O)[C@H](N)CSSC[C@@H](C(N)=O)NC(=O)[C@H](Cc2ccccc2)NC1=O [Analog II, H2 -c[D-Cys-Phe-Phe-D-Trp-Lys-Thr-Phe-Cys] -NH2] (H-[dC]FF[dW]KTFC-NH2; disulfide 1-8)
SSTR-2/SSTR-5 (ratio of the Ki's for human SSTR-2 and human SSTR-5): 4.94

NCCCC[C@@H]1NC(=O)[C@@H](Cc2c[nH]c3ccccc23)NC(=O)[C@H](Cc2ccccc2)NC(=O)[C@H](Cc2ccccc2)NC(=O)[C@@H](N)CSSC[C@@H](C(N)=O)NC(=O)[C@H](Cc2ccccc2)NC(=O)[C@H](CO)NC1=O [Analog IV, H2 -c[Cys-Phe-Phe-D-Trp-Lys-Ser-Phe-Cys] -NH2] (H-CFF[dW]KSFC-NH2; disulfide 1-8)
SSTR-2/SSTR-5 (ratio of the Ki's for human SSTR-2 and human SSTR-5): 20.8

H2 -c[Cys-Asn-Phe-Phe-D-Trp-Lys-Thr-Phe-Cys]-NH2 [Analog V]
SSTR-2/SSTR-5 (ratio of the Ki's for human SSTR-2 and human SSTR-5): 53.1

H2 -c[Cys-Phe-Phe-D-Trp-Lys-Thr-Phe-Cys] -NH2 [Analog I]
SSTR-2/SSTR-5 (ratio of the Ki's for human SSTR-2 and human SSTR-5): 40.2
